According to patent US5807845A, “Therapeutic drug for acne vulgaris” (Senju Pharmaceutical Co., Ltd., priority 1996, dated 1998):
Read-outs that look alike come from different tables or passages of the source.

Tests used:
[1] = tested on: auricular sebaceous glands; experiment: Inhibitory effect on the increase in hamster auricular sebaceous gland area (testosterone propionate-induced); type: in vivo, Syrian hamster; settings: 0.2%, 20 μl to right auricle twice daily for 2 weeks
Method: It is known that, in acne vulgaris, the sebaceous gland function of the skin is enhanced by elevation of the androgen level. Therefore, the auricular sebaceous glands were expanded by subcutaneous administration of an androgen to hamsters and the inhibitory effect of the present compound on this enlargement was tested.
Female Syrian hamsters purchased from SLC Japan were used at the age of 7 weeks.
(2) 0.2% L-ascorbyl DL-α-tocopheryl phosphate potassium (abbreviation: EPC-K)
In 1 ml of sesame oil was dissolved 80 μg of testosterone propionate and the solution was administered subcutaneously to hamsters every other day for 2 weeks to enlarge auricular sebaceous glands. The test material was applied in a volume of 20 μl to the right auricle twice daily for 2 weeks from the beginning of the test. The normal group was subjected to neither treatment. After 2 weeks, the hamsters were sacrificed. The right auricle was bored with a 9 mm-diameter punch and the sebaceous gland area was measured by the whole mount technique. The data were statistically analyzed by Dunnett's test. The level of significance was p<0.05.

[2] = tested on: Propionibacterium acnes (P. acnes); experiment: Minimal growth inhibitory concentration (MIC) against Propionibacterium acnes; type: cell-based, Propionibacterium acnes (clinically isolated strain); settings: for MIC: Cutibacterium acnes; for Growth of P. acnes: key: +: growth; -: growth inhibition
Method: The minimal growth inhibitory concentration (MIC) of the present compound against P. acnes, which is a factor in the onset of acne vulgaris and a member of the normal flora of the skin, was determined.
(1) EPC-K (dissolved in distilled water)
Doubling dilutions from 10 mg/ml to 1.953125×10^-2 mg/ml in final concentration
(2) dl-α-tocopherol and L-ascorbic acid (dissolved in a mixed solution which consists of HC-60 (trademark, manufactured by NOF corporation) and propyleneglycol)
Dubling dilutions from 5 mg/ml to 7.8125×10^-2 mg/ml in final concentration
(3) As control, the mixed solution mentioned above was tested.
This test was performed by the method published by Committee for the Study of Methods for MIC Determination in Anaerobic Bacteria.
A frozen clinically isolated strain of P. acnes was subcultured on GAM agar medium for 3 generations and suspended in saline at about 10^8 cells/ml. This cell suspension and a 100-fold dilution thereof were used as inocula.
To molten GAM agar medium was added 1/9 volume of the test solution of a varying concentration and, after thorough mixing, sensitivity assay plates ranging from 10 mg/ml to 1.953125×10^-2 mg/ml in final concentration were prepared (plate pH 6.64-7.10). Using a loopful of the inoculum, each plate was streaked and incubated anaerobically at 37° C. for at least 48 hours. The incubated plate was then observed grossly and the lowest concentration causing a definite inhibition of growth was regarded as the MIC.
The inoculum was serially diluted 10-fold down to […] and GAM medium was inoculated with each dilution. After culture, the number of colonies were similarly countered for confirmation of the cell count.

Toxicity, LD50 in rat = settings: in vivo, intravenous
[3] = 0.15625 mg/ml, 10^6 CFU/ml (Table 3)
[4] = 0.15625 mg/ml, 10^8 CFU/ml (Table 3)
[5] = 0.3125 mg/ml, 10^6 CFU/ml (Table 3)
[6] = 0.3125 mg/ml, 10^8 CFU/ml (Table 3)
[7] = 0.625 mg/ml, 10^6 CFU/ml (Table 3)
[8] = 0.625 mg/ml, 10^8 CFU/ml (Table 3)
[9] = 1.25 mg/ml, 10^6 CFU/ml (Table 3)
[10] = 1.25 mg/ml, 10^8 CFU/ml (Table 3)
[11] = 2.5 mg/ml, 10^6 CFU/ml (Table 3)
[12] = 2.5 mg/ml, 10^8 CFU/ml (Table 3)
[13] = 5.0 mg/ml, 10^6 CFU/ml (Table 3)
[14] = 5.0 mg/ml, 10^8 CFU/ml (Table 3)
[15] = 7.8125 × 10^-2 mg/ml, 10^6 CFU/ml (Table 3)
[16] = 7.8125 × 10^-2 mg/ml, 10^8 CFU/ml (Table 3)
[17] = vitamins in HC-60/propyleneglycol mixed solution, cell counts 10^8 and 10^6 CFU/ml (Table 3), read-out: MIC

## Cc1c(C)c2c(c(C)c1OP(=O)(O)OC1=C(O)[C@@H]([C@@H](O)CO)OC1=O)CCC(C)(CCCC(C)CCCC(C)CCCC(C)C)O2 (mixture of isomers) [EPC-K, L-ascorbyl DL-α-tocopheryl phosphate potassium]
[1]; mean ± standard deviation (n = 7-8), p < 0.01 vs. methanol control
  Area (auricular sebaceous gland area): 3327 ± 225 μm^2
[1]; vs. methanol control
  % Inhibition of the increase in auricular sebaceous gland area: 72.5%
[2]; 0.15625 mg/ml, 10^6 CFU/ml (Table 2)
  Growth of P. acnes: +
[2]; 0.15625 mg/ml, 10^8 CFU/ml (Table 2)
  Growth of P. acnes: +
[2]; 0.3125 mg/ml, 10^6 CFU/ml (Table 2)
  Growth of P. acnes: -
[2]; 0.3125 mg/ml, 10^8 CFU/ml (Table 2)
  Growth of P. acnes: +
[2]; 0.625 mg/ml, 10^6 CFU/ml (Table 2)
  Growth of P. acnes: -
[2]; 0.625 mg/ml, 10^8 CFU/ml (Table 2)
  Growth of P. acnes: -
[2]; 1.25 mg/ml, 10^6 CFU/ml (Table 2)
  Growth of P. acnes: -
[2]; 1.25 mg/ml, 10^8 CFU/ml (Table 2)
  Growth of P. acnes: -
[2]; 2.5 mg/ml, 10^6 CFU/ml (Table 2)
  Growth of P. acnes: -
[2]; 2.5 mg/ml, 10^8 CFU/ml (Table 2)
  Growth of P. acnes: -
[2]; 5.0 mg/ml, 10^6 CFU/ml (Table 2)
  Growth of P. acnes: -
[2]; 5.0 mg/ml, 10^8 CFU/ml (Table 2)
  Growth of P. acnes: -
[2]; 10.0 mg/ml, 10^6 CFU/ml (Table 2)
  Growth of P. acnes: -
[2]; 10.0 mg/ml, 10^8 CFU/ml (Table 2)
  Growth of P. acnes: -
[2]; 1.953125 × 10^-2 mg/ml, 10^6 CFU/ml (Table 2)
  Growth of P. acnes: +
[2]; 1.953125 × 10^-2 mg/ml, 10^8 CFU/ml (Table 2)
  Growth of P. acnes: +
[2]; 3.90625 × 10^-2 mg/ml, 10^6 CFU/ml (Table 2)
  Growth of P. acnes: +
[2]; 3.90625 × 10^-2 mg/ml, 10^8 CFU/ml (Table 2)
  Growth of P. acnes: +
[2]; 7.8125 × 10^-2 mg/ml, 10^6 CFU/ml (Table 2)
  Growth of P. acnes: +
[2]; 7.8125 × 10^-2 mg/ml, 10^8 CFU/ml (Table 2)
  Growth of P. acnes: +
[2]; cell count 10^6 /ml, EPC-K dissolved in distilled water
  MIC: 312 µg/mL
[2]; cell count 10^8 /ml, EPC-K dissolved in distilled water
  MIC: 625 µg/mL
Toxicity, LD50 in rat
  LD50: ≥ 100 mg/kg

## Cc1c(C)c2c(c(C)c1O)CCC(C)(CCCC(C)CCCC(C)CCCC(C)C)O2 (racemic) [dl-α-Tocopherol, dl-α-tocopherol]
[2]; [3]
  Growth of P. acnes: +
[2]; [4]
  Growth of P. acnes: +
[2]; [5]
  Growth of P. acnes: +
[2]; [6]
  Growth of P. acnes: +
[2]; [7]
  Growth of P. acnes: +
[2]; [8]
  Growth of P. acnes: +
[2]; [9]
  Growth of P. acnes: +
[2]; [10]
  Growth of P. acnes: +
[2]; [11]
  Growth of P. acnes: +
[2]; [12]
  Growth of P. acnes: +
[2]; [13]
  Growth of P. acnes: +
[2]; [14]
  Growth of P. acnes: +
[2]; [15]
  Growth of P. acnes: +
[2]; [16]
  Growth of P. acnes: +
[2]; [17]
  MIC: ≥ 5000 µg/mL

## O=C1O[C@H]([C@@H](O)CO)C(O)=C1O [L-Ascorbic acid, L-ascorbic acid]
[2]; [3]
  Growth of P. acnes: +
[2]; [4]
  Growth of P. acnes: +
[2]; [5]
  Growth of P. acnes: +
[2]; [6]
  Growth of P. acnes: +
[2]; [7]
  Growth of P. acnes: +
[2]; [8]
  Growth of P. acnes: +
[2]; [9]
  Growth of P. acnes: +
[2]; [10]
  Growth of P. acnes: +
[2]; [11]
  Growth of P. acnes: +
[2]; [12]
  Growth of P. acnes: +
[2]; [13]
  Growth of P. acnes: +
[2]; [14]
  Growth of P. acnes: +
[2]; [15]
  Growth of P. acnes: +
[2]; [16]
  Growth of P. acnes: +
[2]; [17]
  MIC: ≥ 5000 µg/mL
